In US20190046507A1, “COMPOUNDS FOR THE TREATMENT OF MALARIA” (Merck Sharp & Dohme Corp., priority 2016, published 2019):

tested on: asexual P. falciparum 3D7 parasites; experiment: P. falciparum 3D7 growth inhibition assay with LDH activity readout (Assay 1); assay type: cell-based; conditions: Plasmodium falciparum; 3D7 strain, 72 h incubation, LDH activity read by absorbance at 650 nm
Description: A modified version of the assay described in Gamo, F. J., Sanz, L. M., Vidal, J., de Cozar, C., Alvarez, E., Lavandera, J. L., Vanderwall, D. E., Green, D. V., Kumar, V., Hasan, S., Brown, J. R., Peishoff, C. E., Cardon, L. R., Garcia-Bustos, J. F., Nature, 465 (2010) 305-310 (Gamo et al.) was used to assess the activity of compounds against asexual P. falciparum 3D7 parasites. Compounds were pre-dispensed in 384-well plates, RPMI/AlbuMAX growth media was added and P. falciparum inoculated. Plates were incubated for 72 h and then frozen at −80° C. overnight. LDH activity was quantified with the modified cofactor 3-acetylpyridine adenine dinucleotide (APAD) (Sigma Aldrich) by measuring absorbance of the tetrazolium indicator nitro blue tetrazolium (NBT) (Sigma Aldrich) at 650 nm.
An inoculum of synchronous P. falciparum (3D7 strain) parasitized red blood cells (PRBC) at 0.7% parasitaemia and 2% haematocrit in RPMI-1640, 5% AlbuMAX, 2% D-sucrose, 0.3% glutamine and 150 μM hypoxanthine was used for the assay.
Compound master plates (384-well) were prepared by a 10 pt serial dilution of compounds, from 1 mM to 50.8 nM, in columns 3-12 and 13-22. DMSO was dispensed into columns 1 and 23 of the compound master plate to be used as the positive growth control (100% viability). […] Intermediate compound dilution plates were prepared by dispensing 1 μl from each well of the compound master plate into 11.5 μl of RPMI/AlbuMAX growth media. Duplicate assay plates (384-well) were then prepared by dispensing 0.5 μL of compound from the intermediate dilution plates into 9.5 μl of RPMI/AlbuMAX growth media. The parasite inoculum (30 μL) was dispensed into the assay plates containing compounds using a Multidrop dispenser (Thermo Scientific) such that the final assay volume was 40 μL and final compound concentration was 1 μM-0.05 nM (the volume of compound addition can be adjusted to the preferred and agreed screening concentration). The final DMSO concentration was 0.1% (ideally 0.2% to limit toxicity to parasites), but this is dependent on volume of compound DMSO stock solution that can be supplied. Plates were incubated at 37° C. for 72 h in an atmosphere of 5% CO2, 5% O2, […].
After 72 h of incubation, plates were frozen at −80° C. overnight and then thawed at room temperature for at least 4 h. To evaluate LDH activity, 45 μL of freshly made reaction mix (174 mM sodium L-lactate (Sigma Aldrich), 214 μM 3-acetyl pyridine adenine dinucleotide (APAD) (Sigma Aldrich), 270 μM nitro blue tetrazolium chloride (NBT) (Sigma Aldrich), 4.35 U/mL diaphorase (from Clostridium kluyveri) (Sigma Aldrich), 0.7% Tween 20, 100 mM Tris-HCl pH 7.5) was dispensed using a Multidrop dispenser (Thermo Scientific). Plates were shaken to ensure mixing and absorbance at 650 nm was monitored using a Perkin Elmer Envision plate reader after 30 min of incubation at room temperature. Data were normalized to percent growth inhibition using positive and negative controls, and analysed using TIBCO Spotfire software. […]

Row | Compound | IC50
1 | CC(=O)N1CCN(C(=O)c2cc(F)cc(CN3C(=N)NC(c4ccccc4)(c4ccccc4)C3=O)c2)CC1 [Compound 1] | 4.5 nM
2 | N=C1NC(C[C@@H]2CCCO2)(c2ccccc2)C(=O)N1Cc1ccc(C(F)(F)F)c(C(=O)N2Cc3nccnc3C2)c1 (stereo partly shown) [Compound 2] | 5.8 nM
3 | CC(C)CC[C@]1(c2ccccc2)NC(=N)N(Cc2ccc(C(F)(F)F)c(C(=O)N3CC(O)C(F)C3)c2)C1=O (stereo partly shown) [Compound 3] | 9.6 nM
4 | N=C1NC(c2ccc(F)cc2)(C2CCCCC2)C(=O)N1Cc1ccc(C(F)(F)F)c(C(=O)N2Cc3nccnc3C2)c1 (stereo not shown) [Compound 4] | 9.7 nM
5 | CC(C)CC[C@]1(c2ccccc2)NC(=N)N(Cc2ccc(C(C)(C)C)c(C(=O)N3CCn4ccnc4C3)c2)C1=O [Compound 5] | 21.2 nM
6 | CC(C)CC[C@]1(c2ccccc2)NC(=N)N([C@@H]2CCc3ccc(C(=O)N4Cc5nccnc5C4)cc32)C1=O [Compound 6] | 21.8 nM
7 | CC(C)CC[C@]1(c2ccccc2)NC(=N)N(Cc2ccc(C(C)(C)C)c(C(=O)N(C)C(C)c3ccncc3)c2)C1=O (stereo partly shown) [Compound 7] | 25.1 nM
8 | CC(C)CC[C@]1(c2ccccc2)NC(=N)N(Cc2ccc(C(C)(C)C)c(C(=O)N3CCOC[C@@H]3C)c2)C1=O [Compound 8] | 56.6 nM
9 | Cc1ccc([C@@]2(CC3CC3)NC(=N)N(Cc3ccc(C(C)(C)C)c(C(=O)N4CCC(C)(C)C4)c3)C2=O)cc1 [Compound 9] | 86.6 nM
10 | CC(C)CC[C@]1(c2ccccc2)NC(=N)N(Cc2ccc(C(C)(C)C)c(C(=O)N(C)Cc3ccon3)c2)C1=O [Compound 10] | 120 nM
11 | CC(C)CC[C@]1(c2ccccc2)NC(=N)N(Cc2ccc(C(C)(C)C)c(C(=O)NCc3cccnc3)c2)C1=O [Compound 11] | 172 nM
12 | Cc1ccc(C2(C3CCCCC3)NC(=N)N(Cc3ccc(C(C)(C)C)c(C(=O)N4Cc5ccccc5C4)c3)C2=O)cc1 (stereo not shown) [Compound 12] | 221 nM
13 | Cc1ccc(C2(c3ccc(C)cc3)NC(=N)N(Cc3ccc(C(C)(C)C)c(C(=O)N4Cc5nccnc5C4)c3)C2=O)cc1 [Compound 13] | 223 nM
14 | Cc1ccc(C2(CCC(C)C)NC(=N)N(Cc3ccc(C(C)(C)C)c(C(=O)N4Cc5cncnc5C4)c3)C2=O)cc1 (stereo not shown) [Compound 14] | 225 nM
15 | CC(C)(C)c1ccc(CN2C(=N)NC(c3ccccc3)(c3ccccc3)C2=O)cc1C(=O)N1Cc2nccnc2C1 [Compound 15] | 239 nM
16 | Cc1ccc(CN2C(=N)NC(CC(C)C)(c3ccccc3)C2=O)cc1C(=O)NC1CC1 (stereo not shown) [Compound 16] | 240 nM
17 | CC(C)CC[C@]1(c2ccccc2)NC(=N)N(Cc2ccc(C(C)(C)C)c(C(=O)N(C)Cc3noc(C4CC4)n3)c2)C1=O [Compound 17] | 310 nM
18 | CCOC(=O)NC1CCN(C(=O)c2cc(C)cc(CN3C(=N)NC(c4ccccc4)(c4ccccc4)C3=O)c2)CC1 [Compound 18] | 313 nM
19 | Cc1cc(CN2C(=N)NC(c3ccccc3)(c3ccccc3)C2=O)cc(C(=O)N2CCNC(=O)C2)c1 [Compound 20] | 356 nM
